Measured values as given in article PMC12090182, “Repurposing of the RIPK1-Selective Benzo[1,4]oxazepin-4-one Scaffold for the Development of a Type III LIMK1/2 Inhibitor” (ACS Chemical Biology, 2025).
Where two headings read alike, the source gives them in different places.

System: HEK293T cells
Format: cell-based
Procedure, shortened: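 HEK293T and U2OS cells (DMEM) and MRC-9 fibroblasts (EMEM) exposed to compounds at 1 and 10 μM. Live-cell confocal imaging of cell shape and fluorescence before and at 12, 24 and 48 h. Normalized to 0.1% DMSO; biological duplicates with SEM.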

[1] = 1 µM, 0 h after treatment, HEK293T, biological replicate 1
[2] = 1 µM, 0 h after treatment, HEK293T, biological replicate 2
[3] = 1 µM, 12 h after treatment, HEK293T, biological replicate 1
[4] = 1 µM, 12 h after treatment, HEK293T, biological replicate 2
[5] = 1 µM, 24 h after treatment, HEK293T, biological replicate 1
[6] = 1 µM, 24 h after treatment, HEK293T, biological replicate 2
[7] = 1 µM, 48 h after treatment, HEK293T, biological replicate 1
[8] = 1 µM, 48 h after treatment, HEK293T, biological replicate 2
[9] = 10 µM, 0 h after treatment, HEK293T, biological replicate 1
[10] = 10 µM, 0 h after treatment, HEK293T, biological replicate 2
[11] = 10 µM, 12 h after treatment, HEK293T, biological replicate 1
[12] = 10 µM, 12 h after treatment, HEK293T, biological replicate 2
[13] = 10 µM, 24 h after treatment, HEK293T, biological replicate 1
[14] = 10 µM, 24 h after treatment, HEK293T, biological replicate 2
[15] = 10 µM, 48 h after treatment, HEK293T, biological replicate 1
[16] = 10 µM, 48 h after treatment, HEK293T, biological replicate 2

CN1C(=O)[C@@H](N2CCc3c(C(N)=O)nn(Cc4ccccc4)c3C2=O)COc2ccccc21 [Compound 11]
Population with membrane disruption (%) (human, 0 h, 10 µM): 0.00% | Population with membrane disruption (%) (human, 12 h, 10 µM): 0.00% | Population with membrane disruption (%) (human, 24 h, 10 µM): 0.00%

CC(C)C(=O)Nc1ncc(C(=O)NCCN(Cc2ccccc2)C(=O)c2ccc(S(=O)(=O)Nc3ccccc3)cc2)s1 [TH470]
Cell count normalized to cells treated with DMSO control [1]: 0.821 | Cell count per well [1]: 245 | Population Fragmented Nuclei (%) [1]: 8.67% | Population Healthy Nuclei (%) [1]: 36.73% | Population Pyknosed Nuclei (%) [1]: 54.59% | Population apoptotic cell (%) [1]: 45.79% | Population cell that influence microtubule strucutre (%) [1]: 23.61% | Population with increased mitochondrial mass (%) [1]: 62.50% | Population with membrane disruption (%) [1]: 0.00% | Cell count normalized to cells treated with DMSO control [2]: 1.084 | Cell count per well [2]: 248 | Population Fragmented Nuclei (%) [2]: 6.57% | Population Healthy Nuclei (%) [2]: 60.56% | Population Pyknosed Nuclei (%) [2]: 32.86% | Population apoptotic cell (%) [2]: 65.71% | Population cell that influence microtubule strucutre (%) [2]: 23.26% | Population with increased mitochondrial mass (%) [2]: 77.52% | Population with membrane disruption (%) [2]: 0.00% | Cell count normalized to cells treated with DMSO control [3]: 0.762 | Cell count per well [3]: 347 | Population Fragmented Nuclei (%) [3]: 6.25% | Population Healthy Nuclei (%) [3]: 79.38% | Population Pyknosed Nuclei (%) [3]: 14.38% | Population apoptotic cell (%) [3]: 34.78% | Population cell that influence microtubule strucutre (%) [3]: 27.17% | Population with increased mitochondrial mass (%) [3]: 44.49% | Population with membrane disruption (%) [3]: 0.79% | Cell count normalized to cells treated with DMSO control [4]: 1.119 | Cell count per well [4]: 392 | Population Fragmented Nuclei (%) [4]: 8.45% | Population Healthy Nuclei (%) [4]: 80.85% | Population Pyknosed Nuclei (%) [4]: 10.70% | Population apoptotic cell (%) [4]: 44.74% | Population cell that influence microtubule strucutre (%) [4]: 20.91% | Population with increased mitochondrial mass (%) [4]: 53.66% | Population with membrane disruption (%) [4]: 0.70% | Cell count normalized to cells treated with DMSO control [5]: 0.7629 | Cell count per well [5]: 463 | Population Fragmented Nuclei (%) [5]: 9.77% | Population Healthy Nuclei (%) [5]: 77.91% | Population Pyknosed Nuclei (%) [5]: 12.33% | Population apoptotic cell (%) [5]: 49.06% | Population cell that influence microtubule strucutre (%) [5]: 18.21% | Population with increased mitochondrial mass (%) [5]: 28.66% | Population with membrane disruption (%) [5]: 1.49% | Cell count normalized to cells treated with DMSO control [6]: 1.065 | Cell count per well [6]: 481 | Population Fragmented Nuclei (%) [6]: 9.19% | Population Healthy Nuclei (%) [6]: 81.84% | Population Pyknosed Nuclei (%) [6]: 8.97% | Population apoptotic cell (%) [6]: 42.50% | Population cell that influence microtubule strucutre (%) [6]: 14.25% | Population with increased mitochondrial mass (%) [6]: 34.25% | Population with membrane disruption (%) [6]: 0.55% | Cell count normalized to cells treated with DMSO control [7]: 0.791 | Cell count per well [7]: 800 | Population Fragmented Nuclei (%) [7]: 15.22% | Population Healthy Nuclei (%) [7]: 78.13% | Population Pyknosed Nuclei (%) [7]: 6.65% | Population apoptotic cell (%) [7]: 21.15% | Population cell that influence microtubule strucutre (%) [7]: 12.27% | Population with increased mitochondrial mass (%) [7]: 18.82% | Population with membrane disruption (%) [7]: 1.47% | Cell count normalized to cells treated with DMSO control [8]: 1.233 | Cell count per well [8]: 842 | Population Fragmented Nuclei (%) [8]: 13.32% | Population Healthy Nuclei (%) [8]: 80.63% | Population Pyknosed Nuclei (%) [8]: 6.05% | Population apoptotic cell (%) [8]: 22.00% | Population cell that influence microtubule strucutre (%) [8]: 11.71% | Population with increased mitochondrial mass (%) [8]: 13.96% | Population with membrane disruption (%) [8]: 2.70% | Cell count normalized to cells treated with DMSO control [9]: 0.9315 | Cell count per well [9]: 278 | Population Fragmented Nuclei (%) [9]: 7.95% | Population Healthy Nuclei (%) [9]: 44.77% | Population Pyknosed Nuclei (%) [9]: 47.28% | Population apoptotic cell (%) [9]: 36.28% | Population cell that influence microtubule strucutre (%) [9]: 15.89% | Population with increased mitochondrial mass (%) [9]: 64.49% | Population with membrane disruption (%) [9]: 0.00% | Cell count normalized to cells treated with DMSO control [10]: 0.9485 | Cell count per well [10]: 217 | Population Fragmented Nuclei (%) [10]: 6.86% | Population Healthy Nuclei (%) [10]: 61.76% | Population Pyknosed Nuclei (%) [10]: 31.37% | Population apoptotic cell (%) [10]: 54.69% | Population cell that influence microtubule strucutre (%) [10]: 26.19% | Population with increased mitochondrial mass (%) [10]: 83.33% | Population with membrane disruption (%) [10]: 0.00% | Cell count normalized to cells treated with DMSO control [11]: 0.7906 | Cell count per well [11]: 360 | Population Fragmented Nuclei (%) [11]: 7.79% | Population Healthy Nuclei (%) [11]: 76.01% | Population Pyknosed Nuclei (%) [11]: 16.20% | Population apoptotic cell (%) [11]: 50.00% | Population cell that influence microtubule strucutre (%) [11]: 67.21% | Population with increased mitochondrial mass (%) [11]: 73.77% | Population with membrane disruption (%) [11]: 0.00% | Cell count normalized to cells treated with DMSO control [12]: 0.8648 | Cell count per well [12]: 303 | Population Fragmented Nuclei (%) [12]: 4.80% | Population Healthy Nuclei (%) [12]: 76.38% | Population Pyknosed Nuclei (%) [12]: 18.82% | Population apoptotic cell (%) [12]: 66.67% | Population cell that influence microtubule strucutre (%) [12]: 63.77% | Population with increased mitochondrial mass (%) [12]: 85.02% | Population with membrane disruption (%) [12]: 0.97% | Cell count normalized to cells treated with DMSO control [13]: 0.6459 | Cell count per well [13]: 392 | Population Fragmented Nuclei (%) [13]: 10.66% | Population Healthy Nuclei (%) [13]: 68.30% | Population Pyknosed Nuclei (%) [13]: 21.04% | Population apoptotic cell (%) [13]: 42.47% | Population cell that influence microtubule strucutre (%) [13]: 67.93% | Population with increased mitochondrial mass (%) [13]: 75.53% | Population with membrane disruption (%) [13]: 0.00% | Cell count normalized to cells treated with DMSO control [14]: 0.6866 | Cell count per well [14]: 310 | Population Fragmented Nuclei (%) [14]: 8.92% | Population Healthy Nuclei (%) [14]: 72.12% | Population Pyknosed Nuclei (%) [14]: 18.96% | Population apoptotic cell (%) [14]: 45.10% | Population cell that influence microtubule strucutre (%) [14]: 52.06% | Population with increased mitochondrial mass (%) [14]: 79.38% | Population with membrane disruption (%) [14]: 1.55% | Cell count normalized to cells treated with DMSO control [15]: 0.5428 | Cell count per well [15]: 549 | Population Fragmented Nuclei (%) [15]: 15.79% | Population Healthy Nuclei (%) [15]: 71.54% | Population Pyknosed Nuclei (%) [15]: 12.67% | Population apoptotic cell (%) [15]: 44.62% | Population cell that influence microtubule strucutre (%) [15]: 57.49% | Population with increased mitochondrial mass (%) [15]: 61.58% | Population with membrane disruption (%) [15]: 2.45% | Cell count normalized to cells treated with DMSO control [16]: 0.5405 | Cell count per well [16]: 369 | Population Fragmented Nuclei (%) [16]: 12.20% | Population Healthy Nuclei (%) [16]: 75.00% | Population Pyknosed Nuclei (%) [16]: 12.80% | Population apoptotic cell (%) [16]: 55.81% | Population cell that influence microtubule strucutre (%) [16]: 64.68% | Population with increased mitochondrial mass (%) [16]: 73.81% | Population with membrane disruption (%) [16]: 1.19%
